1 compound from PMC10547168, “Cell cycle-dependent organization of a bacterial centromere through multi-layered regulation of the ParABS system” (PLOS Genetics, 2023) can be followed below.

In this test the target is T1, ParBBb (Bdellovibrio bacteriovorus, UniProt Q6MGM0).
T1 construct: gene parB; C-terminal 6xHis tag kept (pET21), expressed in E. coli BL21(DE3); HisTrap and Superdex 75 purified; dimer
T1 sequence (Q6MGM0 1-337): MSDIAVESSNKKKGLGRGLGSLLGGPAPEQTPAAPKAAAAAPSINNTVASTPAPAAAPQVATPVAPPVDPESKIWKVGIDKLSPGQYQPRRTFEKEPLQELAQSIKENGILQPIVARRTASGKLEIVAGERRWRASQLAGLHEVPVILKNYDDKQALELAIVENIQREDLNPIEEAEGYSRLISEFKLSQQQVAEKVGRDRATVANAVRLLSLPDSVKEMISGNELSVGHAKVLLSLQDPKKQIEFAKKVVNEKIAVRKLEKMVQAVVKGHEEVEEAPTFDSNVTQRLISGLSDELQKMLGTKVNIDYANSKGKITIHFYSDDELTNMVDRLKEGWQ
As to the kind of experiment: EnzChek phosphate release assay (A360). Type of test: biochemical. To be noted: 1 mM NTP, 1 uM ParBBb, 22 bp parSBb DNA duplex, Mg2+, Tris pH 8.0, 25 °C.

For the compound `Nc1ccn([C@@H]2O[C@H](COP(=O)(O)OP(=O)(O)OP(=O)(O)O)[C@@H](O)[C@H]2O)c(=O)n1` [CTP], the “EnzChek phosphate release assay (A360)” value was “ParBBb hydrolyses CTP but no other NTPs in the presence of parSBb”.
